Data published in ChEMBL document CHEMBL5154828 (J Med Chem, 2022).
The source made the active and inactive calls. No cut-off for these calls is given here.

Columns and labels:
[1] = Drug concentration in rat breast at 20 mg/kg, po measured after 2 hrs; assay type: ADME, organism-based; conditions: read-out: Ct
[2] = molecular target: T1, Estrogen receptor (Homo sapiens) (UniProt P03372); test: Induction of ERalpha degradation in human BT-474 cells incubated 24 hrs by Western blot analysis; assay type: cell-based; conditions: dose 0.1-1000 nM, DDE = dose-dependent effect
T1 sequence (whole entry): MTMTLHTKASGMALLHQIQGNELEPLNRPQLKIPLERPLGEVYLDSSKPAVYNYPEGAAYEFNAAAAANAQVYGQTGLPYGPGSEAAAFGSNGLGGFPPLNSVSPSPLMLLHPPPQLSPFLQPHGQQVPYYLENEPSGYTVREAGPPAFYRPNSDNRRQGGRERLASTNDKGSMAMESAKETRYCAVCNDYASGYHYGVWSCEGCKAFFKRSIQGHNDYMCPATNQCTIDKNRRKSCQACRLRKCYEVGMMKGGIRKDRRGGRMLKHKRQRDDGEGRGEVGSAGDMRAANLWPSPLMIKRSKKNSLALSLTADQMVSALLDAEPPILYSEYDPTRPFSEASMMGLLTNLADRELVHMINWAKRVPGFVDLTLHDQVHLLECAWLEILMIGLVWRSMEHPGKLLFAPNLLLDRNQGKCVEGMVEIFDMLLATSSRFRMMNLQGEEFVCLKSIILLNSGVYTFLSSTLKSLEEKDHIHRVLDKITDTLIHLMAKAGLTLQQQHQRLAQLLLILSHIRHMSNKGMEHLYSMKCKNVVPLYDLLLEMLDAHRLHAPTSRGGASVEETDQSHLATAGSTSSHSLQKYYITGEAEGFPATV

[3] = Toxicity in athymic mouse xenografted with tamoxifen-sensitive human MCF7 cells assessed as body weight loss at 5 to 15 mg/kg, po qd incubated for 21 days; assay type: organism-based; conditions: in vivo, 504 h, dose 5-15 mg/kg, time 21 day
[4] = Volume of distribution at steady state in ICR mouse at 2 mg/kg, iv measured up to 24 hrs by LC/MS/MS analysis; assay type: ADME, organism-based; conditions: in vivo, read-out: Vdss
[5] = AUC (0 to t) in Sprague-Dawley rat at 10 mg/kg, po measured up to 24 hrs by LC/MS/MS analysis; assay type: ADME, organism-based; parameters: time < 24 hrs, dose 10 mg/kg, route po; conditions: in vivo
[6] = Antiproliferative activity against human MCF-7/TAMR-1 cells assessed as inhibition of cell growth measured after 8 days by cell titre glo luminescence assay; conditions: MCF-7/TAMR-1, 192 h
[7] = Ratio of drug concentration in rat liver to plasma at 20 mg/kg, po measured after 2 hrs
Estrogen receptor [8] = molecular target: Estrogen receptor (Homo sapiens, UniProt P03372, Y537S); test: Antagonist activity at ERalpha Y537S mutant degradation in human SK-BR-3 cells incubated for 24 hrs in presence of beta-estradiol by luciferase gene assay; assay type: cell-based
[9] = Ratio of drug concentration in rat breast to plasma at 20 mg/kg, po measured after 2 hrs
[10] = Tmax in Sprague-Dawley rat at 10 mg/kg, po measured up to 24 hrs by LC/MS/MS analysis; assay type: ADME, organism-based; conditions: in vivo
[11] = Elimination half life in ICR mouse at 5 mg/kg, po measured up to 24 hrs by LC/MS/MS analysis; assay type: ADME, organism-based; conditions: in vivo, read-out: beta t1/2 (converted)
[12] = Ratio of drug concentration in rat ovary to plasma at 20 mg/kg, po measured after 2 hrs; conditions: female
MCF7 [13] = test: Antitumor activity against tamoxifen-sensitive human MCF7 cells xenografted in athymic mouse assessed as reduction in tumor growth at 15 mg/kg, po qd measured after 21 days; conditions: 504 h, read-out: TGI
T47D = test: Antiproliferative activity against human T47D cells assessed as inhibition of cell growth measured after 7 days by cell titre glo luminescence assay; assay type: functional, cell-based; conditions: time 7.0 day
[14] = Elimination half life in Sprague-Dawley rat at 10 mg/kg, po measured up to 24 hrs by LC/MS/MS analysis; assay type: ADME, organism-based; conditions: in vivo, read-out: beta t1/2 (converted)
[15] = Drug concentration in rat uterus at 20 mg/kg, po measured after 2 hrs; assay type: ADME, organism-based; conditions: female, read-out: Ct
[16] = molecular target: T1, Estrogen receptor (Homo sapiens); test: Induction of ERalpha degradation in human CAMA-1 cells incubated 24 hrs by Western blot analysis; assay type: cell-based; conditions: dose 0.1-1000 nM, DDE = dose-dependent effect
[17] = MRT in ICR mouse at 5 mg/kg, po measured up to 24 hrs by LC/MS/MS analysis; assay type: ADME, organism-based; conditions: in vivo
[18] = molecular target: T1, Estrogen receptor (Homo sapiens); test: Induction of ERalpha degradation in human MCF7 cells at 5 uM incubated 24 hrs by Western blot analysis; assay type: cell-based
[19] = MRT in Sprague-Dawley rat at 10 mg/kg, po measured up to 24 hrs by LC/MS/MS analysis; assay type: ADME, organism-based; conditions: in vivo
[20] = Cmax in Sprague-Dawley rat at 10 mg/kg, po measured up to 24 hrs by LC/MS/MS analysis; assay type: ADME, organism-based; parameters: time < 24 hrs, dose 10 mg/kg, route po; conditions: in vivo
[21] = Cmax in ICR mouse at 5 mg/kg, po measured up to 24 hrs by LC/MS/MS analysis; assay type: ADME, organism-based; parameters: dose 5 mg/kg, time < 24 hrs, route po; conditions: in vivo
[22] = Drug concentration in rat brain at 20 mg/kg, po measured after 2 hrs; assay type: ADME, organism-based; conditions: read-out: Ct
Estrogen receptor beta = Estrogen receptor beta (Homo sapiens, UniProt Q92731); test: Antagonist activity at ERbeta expressed in HEK293/Gal4 cells incubated for 24 hrs in presence of di-arylpropionitrile by luciferase reporter gene assay
MCF7 [23] = test: Antiproliferative activity against human MCF7 cells assessed as inhibition of cell growth measured after 6 days by cell titre glo luminescence assay; conditions: MCF7, 144 h
CAMA-1 = test: Antiproliferative activity against human CAMA-1 cells assessed as inhibition of cell growth measured after 8 days by cell titre glo luminescence assay; assay type: functional, cell-based; conditions: time 8.0 day
Estrogen receptor [24] = molecular target: T2, Estrogen receptor (Homo sapiens, UniProt P03372); test: Induction of ERalpha degradation in human MCF7 cells incubated for 24 hrs by Western blot analysis; assay type: cell-based
T2 sequence (P03372 whole entry): T1 sequence (whole entry)

[25] = MRT in ICR mouse at 2 mg/kg, iv measured up to 24 hrs by LC/MS/MS analysis; assay type: ADME, organism-based; conditions: in vivo
[26] = Drug concentration in rat kidney at 20 mg/kg, po measured after 2 hrs; assay type: ADME, organism-based; conditions: read-out: Ct
[27] = Elimination half life in ICR mouse at 2 mg/kg, iv measured up to 24 hrs by LC/MS/MS analysis; assay type: ADME, organism-based; conditions: in vivo, read-out: beta t1/2 (converted)
[28] = test system: Estrogen receptor (Homo sapiens), P03372 [Y537S]; test: Induction of ERalpha Y537S mutant degradation in human MCF7 cells at 10 to 100 nM incubated for 4 hrs by Western blot analysis; assay type: cell-based; conditions: dose 10-100 nM
[29] = Ratio of drug concentration in rat uterus to plasma at 20 mg/kg, po measured after 2 hrs; conditions: female
[30] = Ratio of drug concentration in rat kidney to plasma at 20 mg/kg, po measured after 2 hrs
[31] = Drug concentration in rat blood at 20 mg/kg, po measured after 2 hrs; assay type: ADME, organism-based; conditions: whole blood, read-out: Ct
[32] = Ratio of drug concentration in rat blood to plasma at 20 mg/kg, po measured after 2 hrs; conditions: blood and plasma
[33] = molecular target: T1, Estrogen receptor (Homo sapiens); test: Induction of ERalpha degradation in human T47D cells incubated 24 hrs by Western blot analysis; assay type: cell-based; conditions: dose 0.1-1000 nM, DDE = dose-dependent effect

Chain of Estrogen receptor (Homo sapiens, UniProt P03372, Y537S) (P03372 whole entry Y537S): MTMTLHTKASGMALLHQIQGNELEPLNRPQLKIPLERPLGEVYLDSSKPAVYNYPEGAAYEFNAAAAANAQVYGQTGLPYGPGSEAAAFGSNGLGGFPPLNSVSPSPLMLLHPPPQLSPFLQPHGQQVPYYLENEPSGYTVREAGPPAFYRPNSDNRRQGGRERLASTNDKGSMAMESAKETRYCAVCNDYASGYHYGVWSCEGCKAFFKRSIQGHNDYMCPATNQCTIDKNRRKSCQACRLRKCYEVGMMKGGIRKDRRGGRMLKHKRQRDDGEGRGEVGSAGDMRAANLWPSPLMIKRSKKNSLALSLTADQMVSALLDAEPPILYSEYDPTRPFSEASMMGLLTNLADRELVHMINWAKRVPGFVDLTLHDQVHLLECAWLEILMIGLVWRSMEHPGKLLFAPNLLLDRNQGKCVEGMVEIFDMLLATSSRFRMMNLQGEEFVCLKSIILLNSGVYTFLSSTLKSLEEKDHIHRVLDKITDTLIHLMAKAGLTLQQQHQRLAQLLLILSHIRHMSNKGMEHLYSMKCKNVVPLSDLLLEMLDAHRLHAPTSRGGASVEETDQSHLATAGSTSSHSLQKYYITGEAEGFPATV
Chain of Estrogen receptor (Homo sapiens), P03372 [Y537S] (P03372 whole entry Y537S): as above
Chain of Estrogen receptor beta (Q92731 whole entry, the tested form may be a part): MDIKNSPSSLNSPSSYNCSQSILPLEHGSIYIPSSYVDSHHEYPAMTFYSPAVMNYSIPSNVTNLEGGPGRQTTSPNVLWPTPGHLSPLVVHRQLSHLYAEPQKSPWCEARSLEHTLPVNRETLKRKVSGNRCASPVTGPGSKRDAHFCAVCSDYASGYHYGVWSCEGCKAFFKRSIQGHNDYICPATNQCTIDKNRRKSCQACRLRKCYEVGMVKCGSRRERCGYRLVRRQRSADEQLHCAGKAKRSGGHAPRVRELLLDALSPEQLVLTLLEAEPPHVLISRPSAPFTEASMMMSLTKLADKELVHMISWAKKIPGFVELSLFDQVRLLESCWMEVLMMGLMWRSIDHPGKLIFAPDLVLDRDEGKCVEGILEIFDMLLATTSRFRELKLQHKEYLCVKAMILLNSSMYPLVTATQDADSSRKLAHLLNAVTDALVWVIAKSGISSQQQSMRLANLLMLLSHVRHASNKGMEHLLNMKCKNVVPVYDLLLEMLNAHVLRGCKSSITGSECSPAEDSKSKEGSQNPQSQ

With `CC(F)(F)c1cc(Cl)ccc1-c1sc2c(ccc3[nH]ncc32)c1Oc1ccc(OC2CN(CCCF)C2)cc1` the concentration at 2 h [1] was 2410 ng/mL, the Activity [2] was “Dde” and the Activity [3] was “Non-Toxic”. The Vd [4] was 2.7 L/kg, the AUC(0-t) at 24 h [5] was 3180 ng·h/mL and the IC50 [6] was 3.2 nM. For the same compound, the Kp at 2 h [7] was 34.9, the IC50 (Estrogen receptor [8]) was 10.3 nM and the Kp at 2 h [9] was 4. For the same compound, the Tmax [10] was 3.3 h, the half-life [11] was 5.7 h and the Kp at 2 h [12] was 7.3. For the same compound, the inhibition in vivo at 15 mg/kg (MCF7 [13]) was -17%, the Activity (T47D) was “Active” and the half-life [14] was 4.6 h. The concentration at 2 h [15] was 2170 ng/mL, the Activity [16] was “Dde” and the MRT [17] was 8.2 h. The Activity [18] was “Active”, the MRT [19] was 7 h and the Cmax [20] was 340 ng/mL. For the same compound, the Cmax [21] was 768 ng/mL, the concentration at 2 h [22] was 442 ng/mL and the IC50 (Estrogen receptor beta) was 2.3 nM. For the same compound, the IC50 (MCF7 [23]) was 1 nM, the Activity (CAMA-1) was “Active” and the EC50 (Estrogen receptor [24]) was 1.1 nM. It also gave an MRT [25] of 6.4 h, a concentration at 2 h [26] of 7100 ng/mL and a half-life [27] of 4.6 h. The Activity [28] was “Active”, the Kp at 2 h [29] was 3.6 and the Kp at 2 h [30] was 11.7. The concentration at 2 h [31] was 480 ng/mL, the blood plasma ratio at 2 h [32] was 0.8 and the Activity [33] was “Dde”.
